Data taken from BindingDB's records for doi:10.1016/j.bmc.2013.03.035 (University of Poitiers, 2013).

Assay: Inhibition of bovine liver beta-glucosidase

IC50: 487 µM
SMILES: CC[C@@H]1NC[C@@H](O)[C@@H](O)[C@H](O)[C@H]1O
